Measurements from patent US20060106099A1, “Novel inhibitors of ubiquitin isopeptidases” (priority 2002, published 2006).
Like-named read-outs stand apart in the source and are kept apart here.

How the values were obtained:
p53 [1] = test: p53 accumulation ratio in RKO-E6 and RKO cells, punaglandin study; type: cell-based, human; conditions: 6 h; 50 μM Etoposide, 60 μM PGA2
Procedure: To determine if punaglandins inhibit p53 degradation by disrupting the proteasome pathway, the accumulation ratio of p53 was determined in RKO and RKO-E6 cells treated with selected punaglandins, PNG 4 (8) and PNG 6 (10). Equally seeded RKO and RKO-E6 cells were treated with vehicle (0.5% DMSO), 50 μM Etoposide, 60 μM PGA2 (3), 7 μM PNG 6 (10), and 7 μM PNG 4 (8). After 6 h incubation with vehicle or drug, cells were lysed and harvester. […] of protein from each lysate was fractionated by SDS-PAGE and probed for p53 protein. The p53 band intensities were then analyzed and quantitated using densitometry. The ratio of p53 in RKO-E6 to RKO cells was calculated by dividing the amount of p53 in RKO-E6 cells by the amount in RKO cells and multiplying by 100 to give percent

p21 = p21 accumulation in RKO cells; type: cell-based, human; conditions: 6 h
Procedure: It was therefore hypothesized that the isopeptidase inhibitors PNG 4 (8) and PNG 6 (10) would cause a similar accumulation of p21 protein. RKO cells were treated with 2 μM and 7 μM of 8 and 10, 50 μM Etoposide, 60 μM PGA2 (3), or 0.5% DMSO for 6 h before harvesting. Protein was then quantitated, fractionated by SDS-PAGE, and probed for p21 protein. The p21 band intensities were then analyzed and quantitated using densitometry. The ratio of p21 in treated cells to control cells was calculated by dividing the amount of p21 in treated cells by the amount in control cells and multiplied by 100 to give percent.

isopeptidase = conditions: cited from earlier work
ubiquitin isopeptidases [2] = test: Ubiquitin isopeptidase activity, Ub-PEST substrate, lysates of treated RKO and HCT 116 cells; type: cell-based, human; conditions: cells treated 6, 20 or 60 μM, 12 h
Procedure: A) Inhibition of isopeptidase proteolysis of Ub-PEST substrate. RKO and HCT 116 cells were treated with DMSO vehicle, 6, 20, or 60 μM of Δ12-PGJ2, DBA, NSC-302979, or curcumin, 60 μM PGB1, 60 μM NSC-156236, or 60 μM DPTP for 12 h, 37° C. Cell lysates from each treatment were incubated with Ub-PEST, as described in materials and methods. Samples were fractionated by SDS-PAGE and proteins detected with ubiquitin epitopes immunochemically (HCT 116 ^+/+ western blot shown as example of raw data). […] B) Inhibition of isopeptidase activity by test panel compounds. Isopeptidase activity was determined by measuring via densitometry, the amount of Ub generated by isopeptidase cleavage of Ub-PEST. Bar graph patterns are DMSO vehicle (black), Δ12-PGJ2 (hatched), DBA (horizontal lines), NSC-302979 (white), PGB1 (diagonally downward right lines), and NSC-156236 (diagonally downward left lines). The amount of Ub generated in the vehicle treated sample (panel A, lane 2) is arbitrarily designated 100%.
Cellular isopeptidase enzymatic activity was measured with two assays that used different substrates. In one assay ubiquitin-PEST (Ub-PEST) was used, a full-length ubiquitin molecule with an 18 amino acid c-terminal peptide extension (total mass=10.5 kDa). Ubiquitin isopeptidases specifically cleave the 18 amino acid peptide extension, releasing full-length ubiquitin (8.5 kDa).
Briefly, 6×10^5 cells were incubated with 0-60 μM of test compounds for 12 hrs. Cells were lysed in 50 μL of 25 mM HEPES, 5 mM EDTA, 0.1% CHAPS, 5 mM ATP, pH 7.5. The protein concentration of each sample was adjusted to 0.3 mg/mL and incubated with 50 μg/mL Ub-PEST for 45 minutes at 25° C. Under these conditions, Ub-PEST hydrolysis occurs at a linear rate. 20 μL samples were mixed with 20 μL 2× Laemmli buffer, boiled briefly, and fractionated by SDSPAGE. Isopeptidase activity was monitored by determining the amount of product (8.5 kDa ubiquitin) formation.

ubiquitin isopeptidases [3] = test: Ubiquitin isopeptidase activity, z-LRGG-AMC substrate, lysates of treated RKO and HCT 116 cells; type: cell-based, human; conditions: cells treated 6, 20 or 60 μM, 12 h
Procedure: RKO (upper) and HCT 116 ^+/+ cells (lower) were treated with DMSO vehicle, 6, 20, or 60 μM of Δ12-PGJ2, DBA, NSC-302979, or curcumin, 60 μM PGB1, 60 μM NSC-156236, or 60 μM DPTP for 12 h at 37° C. Cell lysates (0.5 mg/mL) from each treatment were incubated with the isopeptidase substrate, z-LRGG-AMC, for 3 h, 37° C. The amount of AMC cleaved by isopeptidase was determined fluorometrically, as described in Materials and Methods.
The second assay used a fluorescent tetrapeptide, z-LRGG-AMC, as a substrate that mimics the carboxy-terminus of ubiquitin. Isopeptidase activity hydrolyzes the bond between the c-terminal glycine and the fluorophore. This tetrapeptide also undergoes slow proteolysis by the catalytic subunit of the proteasome. To minimize this background rate of proteolysis cell lysates were incubated with 30 μM MG115 for 30 minutes at 4° C., prior to substrate incubation (>90% proteasome inhibition). Cells were teeated as above, lysed in 250 μL of lysis buffer per sample, and adjusted protein concentration to 0.5 mg/mL prior to incubation with MG115. Next, z-LRGG-AMC substrate was added and fluorescence was quantified of the AMC moiety cleaved by isopeptidase action.

[4] = tested on: polyubiquitin conjugates in RKO-E6 cells; test: Accumulation of polyubiquitin in RKO-E6 cells (immunoblot); type: cell-based, human; conditions: EC80 or 60 μM, 6-24 h
Procedure: (§1) A) Accumulation of polyubiquitin. RKO-E6 cells were treated with DMSO vehicle for 24 h, 37° C., or with the concentrations of test compounds that gave 80% cell death (as determined by cell viability assay at 48 h) for 6, 12, or 24 h, 37° C. […] Schematic depicting p53 degradation via the proteasome pathway in RKO cells versus RKO-E6 cells. The activity of the HPV E6 oncoprotein hastens p53 degradation in RKO-E6 cells. ii. RKO and RKO-E6 cells were treated with vehicle, etoposide (50 μM), MG115 (20 μM), Δ12-PGJ2 (60 μM), NSC-302979 (20 μM, DBA (20 μM), curcumin (60 μM), PGB1 (60 μM), NSC-156236, (60 XM)or DPTP 60 μM for 6 h, 37° C. Lysates were fractionated by SDS-PAGE and their p53 content determined immunochemically. iii. p53 levels were measured by densitometry and the ratio of p53 protein in RKO-E6 cells/RKO cells calculated.
(§2) The medium was removed and cells lysed in 50 mM Tris, pH 7.4, 100 mM NaCl, 2 mM EDTA with 0.1% SDS, 0.1% deoxycholate, 1× complete protease inhibitor mixture. Protein concentration was measured by the Bradford method. Equal portions of the total cell lysate were fractionated from each sample (12.5 μg of protein) by SDS-PAGE. Proteins were transferred to poly(vinylidene difluoride) blocked with 5% (w/v) nonfat dry milk in Trisbuffered saline [20 mM Tris-HCl, pH 7.5, 100 mM sodium chloride, 0.1% (v/v) Tween 20]. Proteins were detected immunochemically by using primary antibodies directed against p53 (1:4000) or ubiquitin (1:1000), followed by horseradish peroxidase-conjugated secondary antibodies (1:4000). Antigen-antibody complexes were detected with enhanced chemiluminescence reagents. Gels were scanned and quantified intensities using Kodak 1D Image Analysis Software.

p53 [5] = test: p53 accumulation, ratio RKO-E6 cells/RKO cells (immunoblot, densitometry); type: cell-based, human; conditions: 6 h; etoposide 50 μM, MG115, NSC-302979, DBA 20 μM, others 60 μM
Procedure: as §1, §2

[6] = tested on: cell lines with Wild type p53; conditions: cited from earlier work
[7] = tested on: cell lines with mutant/deleted p53; conditions: mean of 41-42 cell lines with mutant/deleted p53; cited from earlier work
RKO cells = test: MTT cell viability assay, RKO cells; conditions: 48 h; for cell death in RKO compared with RKO-E6 cells: isogenic pair; for EC50: read-out: Cytotoxic Potency (EC50) RKO
RKO-E6 cells = test: MTT cell viability assay, RKO-E6 cells; conditions: for EC50: read-out: Cytotoxic Potency (EC50) RKO-E6
Procedure: (§3) Cell viability was measured with MTT reagent as described in materials and methods.
(§4) Cell viability was detected by the MTT assay. Briefly, 1×10^5 cells were incubated per well of a sterile, 96-well assay plate with 0-60 μM of test compounds for 48 hours. MTT reagent was added to each well, final concentration of 0.5 mg/mL, and incubated for an additional 3 hours. The media was aspirated and remaining MTT reagent from each well and added 100 μL of HCl:isopropanol (1:24). The absorbance of each sample was measured at 405 nm.

HCT 116 +/+ cells = test: MTT cell viability assay, HCT 116 p53 +/+ cells; conditions: for cell death in HCT 116 +/+ compared with HCT 116 −/− cells: isogenic pair; for EC50: read-out: Cytotoxic Potency (EC50) HCT +/+
Procedure: as §3, §4

HCT 116 −/− cells = test: MTT cell viability assay, HCT 116 p53 −/− cells; conditions: for EC50: read-out: Cytotoxic Potency (EC50) HCT −/−
caspase-3 = test: Caspase-3 activity in RKO cells (DEVD-AMC); type: cell-based, human; conditions: PNG 4 0.5 μM, PNG 6 1 μM, Taxol 1 μM
Procedure: To determine if selected punaglandins, PNG 4 (8) and PNG 6 (10) also induce apoptosis in RKO cells in a time dependent manner, caspase-3 activity was determined. During apoptosis the caspases, a family of cysteinyl aspartate-specific proteases, are activated. These enzymes cleave specific substrates resulting in biochemical and morphological changes associated with apoptosis. Therefore, detection of activated caspases can be used as a biochemical marker for apoptosis. Caspase-3 has substrate specificity for the amino acid sequence Asp-Glu-Val-Asp (DEVD), cleaving after Asp, and therefore caspase activity can be measured by monitoring cleavage of the substrate DEVD-AMC (Asp-Glu-Val-Asp-7-amino-4-[…]).
RKO cells were treated for 4, 8, and 12 h with PNG 4 (8) at 0.5 μM and PNG 6 (10) at 1 μM. Taxol, a known apoptotic inducer at 1 μM, was used as a positive control, and negative control cells were treated with vehicle (0.5% DMSO). Caspase-3 activity rose steadily as expected from 4-12 h in cells treated with PNG 4 (8), PNG 6 (10), and Taxol but remained constant in the untreated control cells.

Compound | p53 in RKO-E6 cells as percent of RKO cells (p53 [1]) [%] | ratio of p53 protein [RKO-E6 cells/RKO cells] (p53 [5]) | cell death in RKO compared with RKO-E6 cells (RKO cells; MTT) | cell death in HCT 116 +/+ compared with HCT 116 −/− cells (HCT 116 +/+ cells; 48 h, MTT) | EC50 (RKO cells; Homo sapiens, RKO) [µM] | EC50 (RKO-E6 cells; Homo sapiens, RKOE6, 48 h) [µM] | EC50 (HCT 116 +/+ cells; Homo sapiens, HCT-116, 48 h) [µM] | EC50 (HCT 116 −/− cells; Homo sapiens, HCT-116, 48 h) [µM] | also measured
CCCCC[C@H](O)/C=C/[C@H]1C=CC(=O)[C@@H]1C/C=C\CCCC(=O)O [PGA2] | 60 |  |  |  |  |  |  |  | p21 protein in treated cells relative to control cells (p21; RKO cells, 50 μM Etoposide, 60 μM PGA2, punaglandins 2 and 7 μM): 10%; isopeptidase inhibition relative to Δ12-PGJ2 (isopeptidase): significantly less potent
CC1=CC(=O)C2=C(C)CCC3C(C)C(=O)OC3C12 (centres unmarked) [NSC-156236, achillin] |  | significantly less than unity | did not cause significant cell death | did not cause significant cell death |  |  |  |  | inhibition of isopeptidase cleavage of Ub-PEST (ubiquitin isopeptidases [2]): did not inhibit isopeptidase activity; inhibition of z-LRGG-AMC hydrolysis by ubiquitin isopeptidases (ubiquitin isopeptidases [3]): did not; cellular accumulation of polyubiquitin conjugates [4]: did not cause appreciable cellular accumulation of ubiquitin conjugates; cytotoxic activity in NCI 60 cell line cancer screening data [6]: no appreciable cytotoxic activity; Wild Type p53 Mean LC50 ([6]; mean of 18 cell lines with wild type p53): Inactive; Mutant p53 Mean LC50 [7]: Inactive; EC50 (RKO cells; MTT): > 60 µM; EC50 (RKO-E6 cells; 48 h, MTT): > 60 µM; EC50 (HCT 116 +/+ cells; 48 h, MTT): > 60 µM; EC50 (HCT 116 −/− cells; 48 h, MTT): > 60 µM
CC(=O)O[C@H]1C(=O)[C@@]2(C)[C@H]([C@H](OC(=O)c3ccccc3)[C@]3(O)C[C@H](OC(=O)[C@H](O)[C@@H](NC(=O)c4ccccc4)c4ccccc4)C(C)=C1C3(C)C)[C@]1(OC(C)=O)CO[C@@H]1C[C@@H]2O [Taxol, paclitaxel] |  |  | equivalent | equivalent | 0.004 | 0.004 | 0.004 | 0.005 | Caspase-3 activity from 4-12 h (caspase-3): rose steadily
COc1cc([C@@H]2c3cc4c(cc3[C@@H](O[C@@H]3O[C@@H]5CO[C@@H](C)O[C@H]5[C@H](O)[C@H]3O)[C@H]3COC(=O)[C@H]23)OCO4)cc(OC)c1O [Etoposide, etoposide] | 50 | 0.1 |  |  | 7.3 ± 1.6 | 20 ± 2.7 | 7.8 ± 3.9 | 29 ± 6.8 | p21 protein in treated cells relative to control cells (p21; 50 µM): 290%; potency in RKO-E6 cells less than in RKO cells (RKO-E6 cells; 48 h, MTT): ~3 fold; potency in HCT 116 −/− cells less than in HCT 116 +/+ cells (HCT 116 −/− cells; 48 h, MTT): ~4 fold
